From patent US11542274B1, “Therapeutic compounds and methods of use thereof” (AGENCY FOR SCIENCE, TECHNOLOGY AND RESEARCH (A*STAR), priority 2019, dated 2023)

System: RAMOS cells (Burkitt's lymphoma cell line)
Experiment: Anti-proliferation assay (CellTiter-Glo)
Format: cell-based
Conditions: 3 days
Protocol: In cell growth experiments, cells were seeded in 96-well cell culture plates at a density of 3000 of RAMOS cells/well in 100 μL of culture medium. 100 μL of the diluted solution containing the tested compound was added to the appropriate wells of the cell plate. After addition of the tested compound, the cells were incubated at 37° C. in an atmosphere of 5% CO2 for 3 days. CellTiter-Glo (CTG) reagent from the Promega CellTiter-Glo Luminescent Cell Viability Assay kit (#G7572) was added into an OptiPlate 96 (Perkin Elmer, White, Opaque, #6005299) in the dark, incubated for at least 2 hrs, and luminescence signal was read using Tecan Safire II Multi-Mode Plate Reader. The GI50 was calculated by nonlinear regression analysis using GraphPad Prism5 software.
GI50 is the concentration for 50% of maximal inhibition of cell proliferation.

| Molecule | GI50 (Homo sapiens, 72 h) [µM] | GI50 [µM] |
| --- | --- | --- |
| Cc1sc2c(c1C)C(c1ccc(Cl)cc1)=N[C@@H](CC(=O)NCCCCCNc1ncccc1-c1ccc3c(c1)CC(=O)N3)c1nnc(C)n1-2 [Compound 105, (S)-2-(4-(4-chlorophenyl)-2,3,9-trimethyl-6H-thieno[3,2-f][1,2,4]triazolo[4,3-a][1,4]diazepin-6-yl)-N-(5-((3-(2-oxoindolin-5-yl)pyridin-2-yl)amino)pentyl)acetamide] | 0.001 to 0.1 | – |
| Cc1sc2c(c1C)C(c1ccc(Cl)cc1)=N[C@@H](CC(=O)N1CCC(N3CCN(c4ccc(-c5ccc6c(c5)CC(=O)N6)cn4)CC3)CC1)c1nnc(C)n1-2 [Compound 123, (S)-5-(6-(4-(1-(2-(4-(4-chlorophenyl)-2,3,9-trimethyl-6H-thieno[3,2-f][1,2,4]triazolo[4,3-a][1,4]diazepin-6-yl)acetyl)piperidin-4-yl)piperazin-1-yl)pyridin-3-yl)indolin-2-one] | 0.001 to 0.1 | – |
| Cc1sc2c(c1C)C(c1ccc(Cl)cc1)=N[C@@H](CC(=O)NC1CN(c3ccc(-c4ccc5c(c4)CC(=O)N5)cn3)C1)c1nnc(C)n1-2 [Compound 128, (S)-2-(4-(4-chlorophenyl)-2,3,9-trimethyl-6H-thieno[3,2-f][1,2,4]triazolo[4,3-a][1,4]diazepin-6-yl)-N-(1-(5-(2-oxoindolin-5-yl)pyridin-2-yl)azetidin-3-yl)acetamide] | 0.1 to 1 | – |
| Cc1sc2c(c1C)C(c1ccc(Cl)cc1)=N[C@@H](CC(=O)Nc1ccc(OCCOCCNc3ncccc3-c3ccc4c(c3)CC(=O)N4)cc1)c1nnc(C)n1-2 [Compound 140, (S)-2-(4-(4-chlorophenyl)-2,3,9-trimethyl-6H-thieno[3,2-f][1,2,4]triazolo[4,3-a][1,4]diazepin-6-yl)-N-(4-(2-(2-((3-(2-oxoindolin-5-yl)pyridin-2-yl)amino)ethoxy)ethoxy)phenyl)acetamide] | 0.1 to 1 | – |
| Cc1sc2c(c1C)C(c1ccc(Cl)cc1)=N[C@@H](CC(=O)NCCCCCNc1cc(-c3ccc4c(c3)NC(=O)C4)ccn1)c1nnc(C)n1-2 [Compound 096, (S)-2-(4-(4-chlorophenyl)-2,3,9-trimethyl-6H-thieno[3,2-f][1,2,4]triazolo[4,3-a][1,4]diazepin-6-yl)-N-(5-((4-(2-oxoindolin-6-yl)pyridin-2-yl)amino)pentyl)acetamide] | 0.1 to 1 | – |
| Cc1sc2c(c1C)C(c1ccc(Cl)cc1)=N[C@@H](CC(=O)NCCOCCNc1ncc(-c3ccc4c(c3)CC(=O)N4)cn1)c1nnc(C)n1-2 [Compound 133, (S)-2-(4-(4-chlorophenyl)-2,3,9-trimethyl-6H-thieno[3,2-f][1,2,4]triazolo[4,3-a][1,4]diazepin-6-yl)-N-(2-(2-((5-(2-oxoindolin-5-yl)pyrimidin-2-yl)amino)ethoxy)ethyl)acetamide] | 0.001 to 0.1 | – |
| Cc1sc2c(c1C)C(c1ccc(Cl)cc1)=N[C@@H](CC(=O)NCCOCCOCCOCCNc1ncccc1-c1ccc3c(c1)NC(=O)C3)c1nnc(C)n1-2 [Compound 108, (S)-2-(4-(4-chlorophenyl)-2,3,9-trimethyl-6H-thieno[3,2-f][1,2,4]triazolo[4,3-a][1,4]diazepin-6-yl)-N-(2-(2-(2-(2-((3-(2-oxoindolin-6-yl)pyridin-2-yl)amino)ethoxy)ethoxy)ethoxy)ethyl)acetamide] | 0.1 to 1 | – |
| Cc1sc2c(c1C)C(c1ccc(Cl)cc1)=N[C@@H](CC(=O)NC1CCN(c3ccc(-c4ccc5c(c4)CC(=O)N5)cn3)CC1)c1nnc(C)n1-2 [Compound 125, (S)-2-(4-(4-chlorophenyl)-2,3,9-trimethyl-6H-thieno[3,2-f][1,2,4]triazolo[4,3-a][1,4]diazepin-6-yl)-N-(1-(5-(2-oxoindolin-5-yl)pyridin-2-yl)piperidin-4-yl)acetamide] | 0.001 to 0.1 | – |
| Cc1sc2c(c1C)C(c1ccc(Cl)cc1)=N[C@@H](CC(=O)NCCOCCNc1ccc(-c3ccc4c(c3)CC(=O)N4)cn1)c1nnc(C)n1-2 [Compound 117, (S)-2-(4-(4-chlorophenyl)-2,3,9-trimethyl-6H-thieno[3,2-f][1,2,4]triazolo[4,3-a][1,4]diazepin-6-yl)-N-(2-(2-((5-(2-oxoindolin-5-yl)pyridin-2-yl)amino)ethoxy)ethyl)acetamide] | 0.001 to 0.1 | – |
| Cc1sc2c(c1C)C(c1ccc(Cl)cc1)=N[C@@H](CC(=O)NCC1CCN(c3ccc(-c4ccc5c(c4)CC(=O)N5)cn3)CC1)c1nnc(C)n1-2 [Compound 127, (S)-2-(4-(4-chlorophenyl)-2,3,9-trimethyl-6H-thieno[3,2-f][1,2,4]triazolo[4,3-a][1,4]diazepin-6-yl)-N-((1-(5-(2-oxoindolin-5-yl)pyridin-2-yl)piperidin-4-yl)methyl)acetamide] | 0.1 to 1 | – |
| (S)-2-(4-(4-chlorophenyl)-2,3,9-trimethyl-6H-thieno[3,2-f][1,2,4]triazolo[4,3-a][1,4]diazepin-6-yl)-N-(2-oxo-2-(4-(5-(2-oxoindolin-5-yl)pyridin-2-yl)piperazin-1-yl)ethyl)acetamide [Compound 122] | – | 0.001 to 0.1 |
| Cc1sc2c(c1C)C(c1ccc(Cl)cc1)=N[C@@H](CC(=O)NCCOCCC(=O)N1CCN(c3ccc(-c4ccc5c(c4)CC(=O)N5)cn3)CC1)c1nnc(C)n1-2 [Compound 130, (S)-2-(4-(4-chlorophenyl)-2,3,9-trimethyl-6H-thieno[3,2-f][1,2,4]triazolo[4,3-a][1,4]diazepin-6-yl)-N-(2-(3-oxo-3-(4-(5-(2-oxoindolin-5-yl)pyridin-2-yl)piperazin-1-yl)propoxy)ethyl)acetamide] | 0.001 to 0.1 | – |

The next lines start with the values.

| GI50 (Homo sapiens, 72 h) [µM] | GI50 [µM] | Molecule |
| --- | --- | --- |
| 0.1 to 1 | – | Cc1sc2c(c1C)C(c1ccc(Cl)cc1)=N[C@@H](CC(=O)Nc1ccc(OCCOCCOCCOCCNC(=O)c3cccc(-c4ccc5c(c4)NC(=O)C5)c3)cc1)c1nnc(C)n1-2 [Compound 102, (S)—N-(2-(2-(2-(2-(4-(2-(4-(4-chlorophenyl)-2,3,9-trimethyl-6H-thieno[3,2-f][1,2,4]triazolo[4,3-a][1,4]diazepin-6-yl)acetamido)phenoxy)ethoxy)ethoxy)ethoxy)ethyl)-3-(2-oxoindolin-6-yl)benzamide] |
| 0.1 to 1 | – | Cc1sc2c(c1C)C(c1ccc(Cl)cc1)=N[C@@H](CC(=O)NCCOCCOCCOCCOCCNc1ccc(-c3ccc4c(c3)CC(=O)N4)cn1)c1nnc(C)n1-2 [Compound 114, (S)-2-(4-(4-chlorophenyl)-2,3,9-trimethyl-6H-thieno[3,2-f][1,2,4]triazolo[4,3-a][1,4]diazepin-6-yl)-N-(14-((5-(2-oxoindolin-5-yl)pyridin-2-yl)amino)-3,6,9,12-tetraoxatetradecyl)acetamide] |
| 0.1 to 1 | – | Cc1sc2c(c1C)C(c1ccc(Cl)cc1)=N[C@@H](CC(=O)NCCOCCOCCOCCC(=O)NC1CCCN(C(=O)c3ccc4c(c3)CC(=O)N4)C1)c1nnc(C)n1-2 (stereo partly drawn) [Compound 112, 3-(2-(2-(2-(2-((S)-4-(4-chlorophenyl)-2,3,9-trimethyl-6H-thieno[3,2-f][1,2,4]triazolo[4,3-a][1,4]diazepin-6-yl)acetamido)ethoxy)ethoxy)ethoxy)-N-(1-(2-oxoindoline-5-carbonyl)piperidin-3-yl)propanamide] |
| 0.001 to 0.1 | – | Cc1sc2c(c1C)C(c1ccc(Cl)cc1)=N[C@@H](CC(=O)Nc1ccc(OCCOCCOCCOCCNc3ccc(-c4ccc5c(c4)CC(=O)N5)cn3)cc1)c1nnc(C)n1-2 [Compound 098, (S)-2-(4-(4-chlorophenyl)-2,3,9-trimethyl-6H-thieno[3,2-f][1,2,4]triazolo[4,3-a][1,4]diazepin-6-yl)-N-(4-(2-(2-(2-(2-((5-(2-oxoindolin-5-yl)pyridin-2-yl)amino)ethoxy)ethoxy)ethoxy)ethoxy)phenyl)acetamide] |
| > 1 | – | Cc1sc2c(c1C)C(c1ccc(Cl)cc1)=N[C@@H](CC(=O)NCCOCCOCCOCCC(=O)NC1CCCN(C(=O)c3ccc4c(c3)NC(=O)C4)C1)c1nnc(C)n1-2 (stereo partly drawn) [Compound 111, 3-(2-(2-(2-(2-((S)-4-(4-chlorophenyl)-2,3,9-trimethyl-6H-thieno[3,2-f][1,2,4]triazolo[4,3-a][1,4]diazepin-6-yl)acetamido)ethoxy)ethoxy)ethoxy)-N-(1-(2-oxoindoline-6-carbonyl)piperidin-3-yl)propanamide] |
| 0.1 to 1 | – | Cc1sc2c(c1C)C(c1ccc(Cl)cc1)=N[C@@H](CC(=O)NCCOCCOCCOCCOCCOCCNc1ccc(-c3ccc4c(c3)CC(=O)N4)cn1)c1nnc(C)n1-2 [Compound 115, (S)-2-(4-(4-chlorophenyl)-2,3,9-trimethyl-6H-thieno[3,2-f][1,2,4]triazolo[4,3-a][1,4]diazepin-6-yl)-N-(17-((5-(2-oxoindolin-5-yl)pyridin-2-yl)amino)-3,6,9,12,15-pentaoxaheptadecyl)acetamide] |
| 0.001 to 0.1 | – | Cc1sc2c(c1C)C(c1ccc(Cl)cc1)=N[C@@H](CC(=O)Nc1ccc(OCCOCCOCCOCCOCCNc3ccc(-c4ccc5c(c4)CC(=O)N5)cn3)cc1)c1nnc(C)n1-2 [Compound 131, (S)-2-(4-(4-chlorophenyl)-2,3,9-trimethyl-6H-thieno[3,2-f][1,2,4]triazolo[4,3-a][1,4]diazepin-6-yl)-N-(4-((14-((5-(2-oxoindolin-5-yl)pyridin-2-yl)amino)-3,6,9,12-tetraoxatetradecyl)oxy)phenyl)acetamide] |
| 0.1 to 1 | – | Cc1sc2c(c1C)C(c1ccc(Cl)cc1)=N[C@@H](CC(=O)N1CCC3(CCN(c4ncccc4-c4ccc5c(c4)CC(=O)N5)C3)C1)c1nnc(C)n1-2 (stereo partly drawn) [Compound 137] |
| 0.001 to 0.1 | – | Cc1sc2c(c1C)C(c1ccc(Cl)cc1)=N[C@@H](CC(=O)NCCOCCOCCOCCNc1ncccc1-c1ccc3c(c1)CC(=O)N3)c1nnc(C)n1-2 [Compound 107, (S)-2-(4-(4-chlorophenyl)-2,3,9-trimethyl-6H-thieno[3,2-f][1,2,4]triazolo[4,3-a][1,4]diazepin-6-yl)-N-(2-(2-(2-(2-((3-(2-oxoindolin-5-yl)pyridin-2-yl)amino)ethoxy)ethoxy)ethoxy)ethyl)acetamide] |
